What was measured:
Type in all cases: in vivo
Plutella maculipennis = Plutella maculipennis contact test on dipped cabbage leaves; details: after 48 h, 4th instar larvae
Experimental: Plutella maculipennis (Kohlschabe)
(§1) Versuchsart: Kontaktwirkung
Junge Kohlblätter wurden 3 sec. in die wäßrige Aufbereitung der Prüfsubstanz getaucht (Wirkstoffgehalt in ppm) und auf einen mit 0,5 ml Wasser angefeuchteten Rundfilter (Φ 9 cm) in eine Glasschale gelegt (Φ 10 cm). Darauf wurde das Blatt mit 10 Raupen im 4. Larvenstadium besetzt und die Glasschale geschlossen. Nach 48 Stunden beurteilte man die Mortalität in %.

Musca domestica = Musca domestica continuous contact test in glass dish; details: after 4 h
Experimental: Musca domestica (Stubenfliegen)
Versuchsart: Dauerkontakt
Beide Teile einer Glasschale von 10 cm Durchmesser wurden mit insgesamt 1 ml der acetonischen Lösung der Wirkstoffe benetzt. Wirkstoffgehalt der Lösung in ppm. Nach Verdunsten des Lösungsmittels brachte man je 10 Fliegen in die Schalen, schloß sie und zählte nach 4 Stunden die Tiere, die sich in Rückenlage befanden und bestimmte die Mortalitätsrate in %.

Prodenia litura = Prodenia litura feeding test on dipped maize pieces; details: after 24 h
Experimental: Prodenia litura, ägypt. Baumwollwurm
Die Versuche wurden in 250 ml Plastikbechern durchgeführt. Dabei setzte man 2 Raupen in die Gefäße und bot Stücke von Maispflanzen, die man für 5 Sekunden in die wäßrige Wirkstoffaufbereitung getaucht hatte, als Futter an. Wirkstoffgehalt in ppm. Nach 24 Stunden beurteilte man die Mortalitätsrate in %.

Ornithodorus moubata = Ornithodorus moubata (tick) contact test by dipping; details: after 48 h, ca. 25°C
Excerpt: Ornithodorus moubata (Zecke)
as §1
Verwendet wurden junge Zecken, die eine Blutmahlzeit hinter sich hatten (Durchmesser 1,5 bis 2 mm). Diese Tiere nahm man mit Hilfe eines Saugrohres einzeln auf, wobei eine starke Lichtquelle die aktiven Tiere aus den Häutungsresten trieb. Je 5 Zecken wurden in einem Papierbeutel für 5 Sekunden in die wäßrige Wirkstoffaufbereitung getaucht (Wirkstoffgehalt in ppm). Die Beutel hing man danach frei auf und ermittelte nach 48 Stunden die Wirkung. Dabei wurden die Beutel an eine starke Lichtquele (60 W-Birne) gehalten; die lebenden Tiere versuchten auszuweichen und waren leicht zu erkennen. Die Versuchstemperatur betrug ca. 25°C. Man bestimmte die Mortalität in %.

Pyrenophora teres = assay: Efficacy against Pyrenophora teres on barley seedlings, protective spray; details: 0,0125 gew.%ige Spritzbrühe; barley "Igri"; inoculated 24 h after spraying
Experimental: Wirksamkeit gegen Pyrenophora teres
Gerstenkeimlinge der Sorte "Igri" wurden im Zweiblattstadium mit wäßrigen Suspensionen, die 80 % Wirkstoff und 20 % Emulgator in der Trockensubstanz enthielten, tropfnaß gespritzt. Nach 24 Stunden wurden die Pflanzen mit einer Sporensuspension des Pilzes Pyrenophora teres inokuliert und für 48 Stunden in eine Klimakammer mit hoher Luftfeuchtigkeit bei 18°C gestellt. Anschließend wurden die Pflanzen im Gewächshaus bei 20 bis 22°C und 70 % relativer Luftfeuchtigkeit für weitere 5 Tage kultiviert. Dann wurde das Ausmaß des Befalls ermittelt.

Septoria nodorum = assay: Efficacy against Septoria nodorum on wheat plants, protective spray; details: 0,05 gew.%ige Spritzbrühe; wheat "Frühgold"; inoculated 20 h after spraying, assessed after one week
Experimental: Wirksamkeit gegen Septoria nodorum
Weizenpflanzen der Sorte "Frühgold" wurden im Ein-Blatt-Stadium mit wäßriger Wirkstoffaufbereitung, die 80 % Wirkstoff und 20 % Emulgiermittel in der Trockensubstanz enthielt, bis zur Tropfnässe besprüht. 20 Stunden nach dem Antrocknen des Spritzbelages wurden die Pflanzen mit einer wäßrigen Sporensuspension von Septoria nodorum bis zur Tröpfchenbildung inokuliert und für eine Woche in eine Klimakammer bei Temperaturen zwischen 17 und 19°C und einer relativen Luftfeuchtigkeit von ungefähr 90 bis 95 % gestellt. Dann wurde das Ausmaß der Symptomentwicklung ermittelt.

Plasmopara viticola = assay: Efficacy against Plasmopara viticola on potted vine leaves, protective spray; details: 0,0125 gew.%ige Spritzbrühe; vines "Müller Thurgau"; infected 8 days after spraying
Excerpt: Wirksamkeit gegen Plasmopara viticola
Blätter von Topfreben der Sorte "Müller Thurgau" wurden mit wäßriger Spritzbrühe, die 80 % Wirkstoff und 20 % Emulgiermittel in der Trockensubstanz enthielt, besprüht. Um die Wirkungsdauer der Wirkstoffe beurteilen zu können, wurden die Pflanzen nach dem Antrocknen des Spritzbelages 8 Tage im Gewächshaus aufgestellt. Erst dann wurden die Blätter mit einer Zoosporenaufschwemmung von Plasmopara viticola (Rebenperonospora) infiziert. Danach wurden die Reben zunächst für 48 Stunden in einer wasserdampfgesättigten Kammer bei 24°C und anschließend für 5 Tage in einem Gewächshaus mit Temperaturen zwischen 20 und 30°C aufgestellt. Nach dieser Zeit wurden die Pflanzen zur Beschleunigung des Sporangienträgerausbruches abermals für 16 Stunden in der feuchten Kammer aufgestellt. Dann erfolgte die Beurteilung des Ausmaßes des Pilzausbruches auf den Blattunterseiten.

Tetranychus telarius = Tetranychus telarius contact test, spray test on bush beans; details: 120 h, after 5 days
Experimental: Tetranychus telarius, Rote Spinne, Kontaktwirkung, Spritzversuch
Buschbohnen in Töpfen, die das zweite Blattpaar zeigen, werden mit der wäßrigen Wirkstoffaufbereitung tropfnaß gespritzt. Die Pflanzen werden von allen Seiten mit insgesamt 50 ml Spritzbrühe besprüht. Die Pflanzen weisen einen starken Milbenbefall und reichliche Eiablage auf.
Die Wirkung wird nach 5 Tagen mittels Binokular ermittelt. Dabei wird darauf geachtet, ob alle Entwicklungsstadien der Tiere gleichmäßig erfaßt sind. Die Pflanzen stehen während der 5 Tage unter normalen Gewächshausbedingungen.

SMILES: COC=C(C(=O)OC)c1ccccc1C=Cc1ccc(Cl)cc1 [A, 2-(β-Methoxy-α-methoxycarbonylvinyl)-4'-chlor-stilben]
- mortality at 1000 ppm (Plutella maculipennis): 0%
- mortality at 2 ppm (Musca domestica): 0%
- mortality at 1000 ppm (Prodenia litura): 0%
- % Mort. (Ornithodorus moubata; 1000 ppm): 0%

SMILES: CO/C=C(/C(=O)OC)c1ccccc1/C=C/c1nnc(C(C)C)o1 [compound 69]
- fungizide Wirkung (Pyrenophora teres): 95%
- fungizide Wirkung (Septoria nodorum): 95%

SMILES: CO/C=C(/C(=O)OC)c1ccccc1/C=C/c1cc(C)no1 [compound 100]
- fungizide Wirkung (Pyrenophora teres): 95%
- fungizide Wirkung (Plasmopara viticola): 95%

SMILES: CO/C=C(/C(=O)OC)c1ccccc1/C=C/c1cc(C(C)C)no1 [compound 41]
- fungizide Wirkung (Septoria nodorum): 95%
- mortality at 100 ppm (Tetranychus telarius): 100%
- % Mort. (Ornithodorus moubata; 1000 ppm): 80%

SMILES: CO/C=C(/C(=O)OC)c1ccccc1/C=C/c1cc(-c2ccc(C#N)cc2)no1 [compound 46]
- fungizide Wirkung (Pyrenophora teres): 95%
- mortality at 400 ppm (Tetranychus telarius; 400 ppm): 100%
- fungizide Wirkung (Plasmopara viticola): 95%

SMILES: CO/C=C(/C(=O)OC)c1ccccc1/C=C/c1cnn(-c2ccc(F)cc2)c1 [compound 98]
- fungizide Wirkung (Pyrenophora teres): 95%
- fungizide Wirkung (Septoria nodorum): 95%
- fungizide Wirkung (Plasmopara viticola): 95%

SMILES: CO/C=C(/C(=O)OC)c1ccccc1/C=C/c1cnn(-c2ccc(Cl)cc2)c1 [compound 31]
- fungizide Wirkung (Pyrenophora teres): 95%
- fungizide Wirkung (Septoria nodorum): 95%
- fungizide Wirkung (Plasmopara viticola): 95%

SMILES: CO/C=C(/C(=O)OC)c1ccccc1/C=C/c1nc(-c2ccc(Cl)cc2)no1 [compound 84]
- fungizide Wirkung (Pyrenophora teres): 95%
- fungizide Wirkung (Septoria nodorum): 95%

SMILES: CO/C=C(/C(=O)OC)c1ccccc1/C=C/c1cc(-c2ccc(C)cc2)no1 [compound 45]
- fungizide Wirkung (Pyrenophora teres): 95%
- mortality at 40 ppm (Tetranychus telarius; 40 ppm): 80%
- fungizide Wirkung (Plasmopara viticola): 95%
- % Mort. (Ornithodorus moubata; 1000 ppm): 60%

SMILES: CO/C=C(/C(=O)OC)c1ccccc1/C=C/c1cnn(-c2ccc(C)cc2)c1 [compound 30]
- fungizide Wirkung (Pyrenophora teres): 95%
- fungizide Wirkung (Septoria nodorum): 95%
- fungizide Wirkung (Plasmopara viticola): 95%

SMILES: CO/C=C(/C(=O)OC)c1ccccc1/C=C/c1cc(-c2c(F)cccc2Cl)no1 [compound 102]
- fungizide Wirkung (Pyrenophora teres): 95%
- fungizide Wirkung (Septoria nodorum): 95%
- fungizide Wirkung (Plasmopara viticola): 95%

SMILES: COC=C(C(=O)OC)c1ccccc1Oc1cncc(Cl)n1 [C, α-2-(6-Chlorpyrazin-2-oxy)-phenyl-β-methoxy-acrylsäuremethylester, reference compound]
- fungizide Wirkung (Pyrenophora teres): 55%
- fungizide Wirkung (Plasmopara viticola): 60%

SMILES: COC=C(C(=O)OC)c1ccccc1Oc1nc2ccccc2o1 [B, α-[2-(Benzoxazol-2'-yl-oxy)-phenyl]-β-methoxy-acrylsäuremethylester]
- mortality at 200 ppm (Plutella maculipennis; 200 ppm): 0%
- mortality at 1000 ppm (Plutella maculipennis): 80%
- mortality at 4 ppm (Musca domestica; 4 ppm): 80%
- mortality at 1000 ppm (Prodenia litura): 80%
- mortality at 1000 ppm (Tetranychus telarius; 1000 ppm): 0%
- % Mort. (Ornithodorus moubata; 1000 ppm): 0%

SMILES: CO/C=C(/C(=O)OC)c1ccccc1/C=C/c1cnn(-c2ccc(Br)cc2)c1 [compound 99]
- fungizide Wirkung (Pyrenophora teres): 95%
- fungizide Wirkung (Septoria nodorum): 95%
- fungizide Wirkung (Plasmopara viticola): 95%

SMILES: CO/C=C(/C(=O)OC)c1ccccc1/C=C/c1ccn(-c2ccc(Cl)cc2)c1 [Verbindung Nr. 4, Alpha-2-[2'-(N-para-Chlorphenyl-pyrrol-3''-yl)-ethen-1'-yl]-phenyl-β-methoxy-acrylsäuremethylester]
- fungizide Wirkung (Septoria nodorum): 95%
- mortality at 100 ppm (Plutella maculipennis; 100 ppm): 100%
- mortality at 2 ppm (Musca domestica): 100%
- mortality at 40 ppm (Prodenia litura; 40 ppm): 100%
- % Mort. (Ornithodorus moubata; 400 ppm): 80%

SMILES: COC=C(C(=O)OC)c1ccccc1C=Cc1cc(C2CC2)no1 [Verbindung Nr. 42, Alpha-2-[2′-(3˝-Cyclopropyl-isoxazol-5˝-yl)-ethen-1′-yl]-phenyl-β-methoxy-acrylsäuremethylester]
- fungizide Wirkung (Plasmopara viticola): 95%

SMILES: CO/C=C(/C(=O)OC)c1ccccc1/C=C/c1cc(-c2ccccc2)no1 [compound 101]
- mortality at 100 ppm (Tetranychus telarius): 100%
- fungizide Wirkung (Plasmopara viticola): 95%
- % Mort. (Ornithodorus moubata; 1000 ppm): 60%
